Key:
P450RAI-1 = target: T1, P450RAI-1 (Homo sapiens, UniProt O43174); assay: P450RAI-1 cell-based inhibitor assay ([3H]-RA metabolism, intact cells); conditions: P450RAI-1 stably transfected HeLa cells, 3 hours at 37° C., all-trans-RA metabolism; read-out: P450RAI INHIBITION DATA RAI-1 Intact cells IC50
T1 construct: expressed in transfected cells; host or cells: HeLa
T1 sequence (O43174 1-497): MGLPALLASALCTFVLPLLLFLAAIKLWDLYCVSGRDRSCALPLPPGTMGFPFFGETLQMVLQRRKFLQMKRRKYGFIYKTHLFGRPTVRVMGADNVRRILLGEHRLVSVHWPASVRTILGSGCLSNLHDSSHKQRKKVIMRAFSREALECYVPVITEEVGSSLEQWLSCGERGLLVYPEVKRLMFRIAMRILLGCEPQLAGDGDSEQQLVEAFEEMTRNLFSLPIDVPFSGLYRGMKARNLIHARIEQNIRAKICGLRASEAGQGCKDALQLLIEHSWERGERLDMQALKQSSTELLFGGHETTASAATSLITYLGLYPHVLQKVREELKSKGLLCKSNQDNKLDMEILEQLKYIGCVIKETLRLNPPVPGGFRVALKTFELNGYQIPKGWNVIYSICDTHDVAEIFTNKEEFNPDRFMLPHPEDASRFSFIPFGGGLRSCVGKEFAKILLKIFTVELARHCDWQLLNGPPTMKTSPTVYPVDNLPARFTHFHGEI
Procedure: (§1) FIG. 1 is a schematic representation of the P450RAI cell based assay utilized to evaluate the ability of the compounds of the invention to inhibit the Cytochrome P450RAI enzyme.
(§2) P450RAI-1 and P450RAI-2 Cell-Based Inhibitor Assay:
(§3) P450RAI-1 stably transfected HeLa cells, or P450RAI-2 stably transfected HeLa cells, as applicable, are maintained in […] tissue culture dishes in Modified Eagle's Medium (MEM) containing 10% Fetal Bovine Serum (FBS) and 100 μg/ml hygromycin. Exponentially growing cells are harvested by incubating in trypsin. Cells are then washed with 1X Phosphate Buffered Saline (PBS) and plated in a 48-well plate at 5×10^5 cells in 0.2 ml MEM medium containing 10% FBS and 0.05 μCi [^3H]-RA in the presence or absence of increasing concentrations of the test compounds. The compounds are diluted in 100% DMSO and then added in triplicate wells at either 10, 1 or 0.1 μM final concentration. As a positive control for RA metabolism inhibition, cells are also incubated with ketoconazole at 100, 10 and 1 μM. Cells are incubated for 3 hours at 37° C. The retinoids are then extracted using the procedure of Bligh et al. (1959) Canadian Journal of Biochemistry 37, 911-917, modified by using methylenechloride instead of chloroform. The publication Bligh et al. (1959) Canadian Journal of Biochemistry 37, 911-917 is specifically incorporated herein by reference. The water soluble radioactivity is quantified using a β-scintillation counter. IC50 values represent the concentration of inhibitor required to inhibit all-trans-RA metabolism by 50 percent and are derived manually from log-transformed data.

P450RAI-2 = target: T2, P450RAI-2 (Homo sapiens, UniProt Q9NR63); assay: P450RAI-2 cell-based inhibitor assay ([3H]-RA metabolism, intact cells); conditions: P450RAI-2 stably transfected HeLa cells, 3 hours at 37° C., all-trans-RA metabolism; read-out: P450RAI INHIBITION DATA RAI-2 Intact Cells IC50
T2 construct: expressed in transfected cells; host or cells: HeLa
T2 sequence (Q9NR63 1-512): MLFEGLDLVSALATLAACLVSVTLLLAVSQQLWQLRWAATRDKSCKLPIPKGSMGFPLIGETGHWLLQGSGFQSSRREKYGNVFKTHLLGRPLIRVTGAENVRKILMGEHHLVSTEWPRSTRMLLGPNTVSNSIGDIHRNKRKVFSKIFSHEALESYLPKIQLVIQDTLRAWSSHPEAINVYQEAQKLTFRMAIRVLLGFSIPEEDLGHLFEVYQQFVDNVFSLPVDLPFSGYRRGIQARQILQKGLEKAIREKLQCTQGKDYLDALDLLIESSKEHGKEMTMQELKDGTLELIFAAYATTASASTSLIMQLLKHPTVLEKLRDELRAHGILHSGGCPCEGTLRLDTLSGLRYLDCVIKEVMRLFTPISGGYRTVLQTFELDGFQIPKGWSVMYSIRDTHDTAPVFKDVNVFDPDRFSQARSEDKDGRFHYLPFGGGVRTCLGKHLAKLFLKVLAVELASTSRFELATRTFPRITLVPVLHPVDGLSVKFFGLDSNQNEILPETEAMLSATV
Procedure: as §1, §2, §3

Row | SMILES | IC50 (P450RAI-1) [nM] | IC50 (P450RAI-2) [nM]
1 | C#Cc1cc(C(=O)Oc2ccc(CC(=O)OCC)cc2)cc2c1OC(C)(C)CC2(C)C [Compound 2, 8-Ethynyl-2,2,4,4-tetramethyl-chroman-6-carboxylic acid 4-ethoxycarbonylmethyl-phenyl ester] | 6000 | 6000
2 | C#Cc1cc(C(=O)Oc2ccc(CC(=O)OCOC(C)=O)c(F)c2)cc2c1OC(C)(C)CC2(C)C [Compound 5, 8-Ethynyl-2,2,4,4-tetramethyl-chroman-6-carboxylic acid 4-acetoxymethoxycarbonylmethyl-3-fluoro-phenyl ester] | 75 | 30
3 | CC(=O)OCOC(=O)Cc1ccc(OC(=O)c2cc(C#N)c3c(c2)C(C)(C)CC(C)(C)O3)cc1F [Compound 33, 8-Cyano-2,2,4,4-tetramethyl-chroman-6-carboxylic acid 4-acetoxymethoxycarbonylmethyl-3-fluoro-phenyl ester] | 100 | 700
4 | C#Cc1cc(C(=O)Oc2ccc(CC(=O)O)cc2)cc2c1OC(C)(C)CC2(C)C [Compound 1, 8-Ethynyl-2,2,4,4-tetramethyl-chroman-6-carboxylic acid 4-carboxymethyl-phenyl ester] | 500 | 14
5 | C#Cc1cc(C(=O)Oc2ccc(CC(=O)OCOC(C)=O)cc2)cc2c1OC(C)(C)CC2(C)C [Compound 3, 8-Ethynyl-2,2,4,4-tetramethyl-chroman-6-carboxylic acid 4-acetoxymethoxycarbonylmethyl-phenyl ester] | 500 | 80

The remaining lines, values ahead:

Row | IC50 (P450RAI-1) [nM] | IC50 (P450RAI-2) [nM] | SMILES
6 | 4 | 4 | C#Cc1cc(C#Cc2ccc(CC(=O)O)c(F)c2)cc2c1OC(C)(C)CC2(C)C [Compound 41, [4-(8-Ethynyl-2,2,4,4-tetramethyl-chroman-6-ylethynyl)-2-fluoro-phenyl]-acetic acid]
7 | 10 | 7 | C#Cc1cc(C#Cc2ccc(CC(=O)O)cc2)cc2c1OC(C)(C)CC2(C)C [Compound 40, [4-(8-Ethynyl-2,2,4,4-tetramethyl-chroman-6-ylethynyl)-phenyl]-acetic acid]
8 | 100 | 900 | CC1(C)CC(C)(C)c2cc(C(=O)Oc3ccc(CC(=O)O)c(F)c3)cc(C#N)c2O1 [Compound 32, 8-Cyano-2,2,4,4-tetramethyl-chroman-6-carboxylic acid-4-carboxymethyl-3-fluoro-phenyl ester]
9 | 100 | 60 | C#Cc1cc(C(=O)Oc2ccc(CC(=O)O)c(F)c2)cc2c1OC(C)(C)CC2(C)C [Compound 4, 8-Ethynyl-2,2,4,4-tetramethyl-chroman-6-carboxylic acid-4-carboxymethyl-3-fluoro-phenyl ester]
10 | 18 | 120 | C#CCc1cc(C#Cc2ccc(CC(=O)O)cc2)cc2c1OC(C)(C)CC2(C)C [Compound 49]
